Patent US12685735B2 (Foghorn Therapeutics Inc., priority 2020, dated 2026)
Read-outs that look alike come from different tables or passages of the source.

What was measured:
BRG-1 = BRG-1 (Homo sapiens, UniProt P51532); test: ATPase catalytic activity assay of BRG-1 (ADP-Glo); assay type: biochemical; details: ATPase catalytic activity, ADP-Glo; for IC50: read-out: BRG1 IC50 (μM)*; for Emax: read-out: BRG1 Max % Inhibition
In short: (§1)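 ATPase activity of BRG-1 or BRM was read by ADP-Glo. Residual ATP was depleted (40 min, room temperature), then ADP was converted to ATP (60 min, room temperature) and measured as luciferase luminescence.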

BRM = BRM (Homo sapiens, UniProt P51531); test: ATPase catalytic activity assay of BRM (ADP-Glo); assay type: biochemical; details: for IC50: read-out: BRM IC50 (μM)*
Chain of BRM (P51531 whole entry): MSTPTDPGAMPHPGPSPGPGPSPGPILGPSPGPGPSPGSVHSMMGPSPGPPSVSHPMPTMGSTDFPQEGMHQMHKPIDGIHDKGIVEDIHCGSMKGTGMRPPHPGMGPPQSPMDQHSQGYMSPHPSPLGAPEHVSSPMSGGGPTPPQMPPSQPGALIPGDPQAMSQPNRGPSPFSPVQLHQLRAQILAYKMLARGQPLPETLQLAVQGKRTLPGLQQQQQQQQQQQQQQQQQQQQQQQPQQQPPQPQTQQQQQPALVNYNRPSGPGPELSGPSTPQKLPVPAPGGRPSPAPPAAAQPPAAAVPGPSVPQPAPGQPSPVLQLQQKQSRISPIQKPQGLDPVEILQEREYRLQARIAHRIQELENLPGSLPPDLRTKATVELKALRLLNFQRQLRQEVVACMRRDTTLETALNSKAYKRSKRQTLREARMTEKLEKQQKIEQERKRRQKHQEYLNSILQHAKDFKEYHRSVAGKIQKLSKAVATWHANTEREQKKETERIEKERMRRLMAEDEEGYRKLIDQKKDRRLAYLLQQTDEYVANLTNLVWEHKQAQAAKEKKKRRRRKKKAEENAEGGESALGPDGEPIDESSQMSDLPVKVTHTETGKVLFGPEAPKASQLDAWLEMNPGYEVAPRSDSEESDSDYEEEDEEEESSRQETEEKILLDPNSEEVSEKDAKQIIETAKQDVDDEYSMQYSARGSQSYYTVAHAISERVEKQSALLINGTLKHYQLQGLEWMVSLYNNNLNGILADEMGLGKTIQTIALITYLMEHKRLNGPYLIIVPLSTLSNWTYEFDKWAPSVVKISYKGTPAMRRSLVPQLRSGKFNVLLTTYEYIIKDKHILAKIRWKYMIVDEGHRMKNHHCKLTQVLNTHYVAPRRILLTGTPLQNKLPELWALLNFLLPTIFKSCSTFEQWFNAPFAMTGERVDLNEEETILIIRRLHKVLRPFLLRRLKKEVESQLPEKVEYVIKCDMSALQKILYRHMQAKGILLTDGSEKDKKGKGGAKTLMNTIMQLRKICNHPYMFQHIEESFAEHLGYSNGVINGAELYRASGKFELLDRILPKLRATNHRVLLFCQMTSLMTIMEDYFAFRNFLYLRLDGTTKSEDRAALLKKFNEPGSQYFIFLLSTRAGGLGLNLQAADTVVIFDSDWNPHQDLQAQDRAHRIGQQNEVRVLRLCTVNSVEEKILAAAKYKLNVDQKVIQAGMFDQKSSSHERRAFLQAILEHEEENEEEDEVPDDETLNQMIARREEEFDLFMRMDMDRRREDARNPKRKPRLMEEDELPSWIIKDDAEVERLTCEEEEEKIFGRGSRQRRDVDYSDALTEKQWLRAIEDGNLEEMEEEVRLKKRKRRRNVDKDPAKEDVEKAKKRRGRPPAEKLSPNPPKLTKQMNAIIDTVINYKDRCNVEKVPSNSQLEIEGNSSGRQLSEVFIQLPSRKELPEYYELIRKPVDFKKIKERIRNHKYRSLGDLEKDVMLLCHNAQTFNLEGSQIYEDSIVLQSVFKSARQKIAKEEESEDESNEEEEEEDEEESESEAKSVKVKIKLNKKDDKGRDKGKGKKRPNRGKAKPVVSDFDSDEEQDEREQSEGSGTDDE
In short: as §1

Chain of BRG-1 (P51532 whole entry): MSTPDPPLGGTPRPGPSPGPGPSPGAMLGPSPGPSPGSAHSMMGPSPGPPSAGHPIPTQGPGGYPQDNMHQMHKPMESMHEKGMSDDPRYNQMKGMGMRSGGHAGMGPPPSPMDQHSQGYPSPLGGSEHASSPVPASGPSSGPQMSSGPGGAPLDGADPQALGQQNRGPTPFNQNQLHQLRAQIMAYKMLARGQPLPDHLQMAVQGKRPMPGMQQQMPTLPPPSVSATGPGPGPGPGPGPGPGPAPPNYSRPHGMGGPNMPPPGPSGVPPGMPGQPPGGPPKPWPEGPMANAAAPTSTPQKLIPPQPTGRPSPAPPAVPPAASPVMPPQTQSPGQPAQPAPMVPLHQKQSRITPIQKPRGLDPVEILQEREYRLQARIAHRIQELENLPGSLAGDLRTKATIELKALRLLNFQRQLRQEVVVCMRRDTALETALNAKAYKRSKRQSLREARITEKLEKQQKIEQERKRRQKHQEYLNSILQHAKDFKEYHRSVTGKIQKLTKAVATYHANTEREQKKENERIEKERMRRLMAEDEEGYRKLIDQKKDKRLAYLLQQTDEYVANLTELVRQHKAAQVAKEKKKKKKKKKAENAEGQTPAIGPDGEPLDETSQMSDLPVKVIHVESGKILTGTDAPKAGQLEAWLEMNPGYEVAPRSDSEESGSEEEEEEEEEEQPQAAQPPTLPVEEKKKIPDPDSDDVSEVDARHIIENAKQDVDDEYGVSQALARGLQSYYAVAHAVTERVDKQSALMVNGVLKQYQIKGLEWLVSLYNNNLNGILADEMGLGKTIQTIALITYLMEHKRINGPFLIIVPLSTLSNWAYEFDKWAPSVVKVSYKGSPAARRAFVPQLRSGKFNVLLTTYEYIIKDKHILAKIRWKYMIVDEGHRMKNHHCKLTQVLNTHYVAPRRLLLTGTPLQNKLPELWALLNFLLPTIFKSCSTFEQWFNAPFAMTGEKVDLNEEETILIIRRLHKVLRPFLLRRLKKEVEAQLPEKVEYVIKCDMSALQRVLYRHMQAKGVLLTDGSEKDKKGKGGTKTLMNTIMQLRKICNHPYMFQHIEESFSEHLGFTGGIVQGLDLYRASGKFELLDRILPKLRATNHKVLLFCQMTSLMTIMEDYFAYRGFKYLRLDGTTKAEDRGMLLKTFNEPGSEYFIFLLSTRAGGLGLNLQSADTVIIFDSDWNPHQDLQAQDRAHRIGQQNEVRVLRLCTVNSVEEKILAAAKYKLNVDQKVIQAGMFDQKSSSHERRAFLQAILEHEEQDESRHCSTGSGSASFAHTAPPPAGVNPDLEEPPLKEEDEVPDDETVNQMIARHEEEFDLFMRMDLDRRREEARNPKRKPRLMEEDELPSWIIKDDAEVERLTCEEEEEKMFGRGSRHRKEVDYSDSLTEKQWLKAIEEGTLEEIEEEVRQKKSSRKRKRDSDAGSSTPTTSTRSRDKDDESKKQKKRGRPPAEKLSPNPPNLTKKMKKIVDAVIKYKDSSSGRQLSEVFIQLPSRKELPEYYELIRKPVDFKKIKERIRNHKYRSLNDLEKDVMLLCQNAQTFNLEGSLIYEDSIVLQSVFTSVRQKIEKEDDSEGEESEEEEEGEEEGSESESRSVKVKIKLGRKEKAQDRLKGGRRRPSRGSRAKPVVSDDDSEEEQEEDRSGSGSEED

| SMILES | IC50 (BRG-1) [µM] | Emax (BRG-1) [%] | BRM Max % Inhibition (BRM) [%] | IC50 (BRM) [µM] | IC50 (BRG-1; 30 nM BRG-1, 400 μM ATP) [µM] | Emax (BRG-1; 30 nM BRG-1, 400 μM ATP) [%] | BRM Max % Inhibition (BRM; 30 nM BRM, 400 μM ATP) [%] | IC50 (BRM; 30 nM BRM, 400 μM ATP) [µM] | BRG1 Max % Inhibition (BRG-1) [%] |
| --- | --- | --- | --- | --- | --- | --- | --- | --- | --- |
| C[C@@H]1CN(c2cccc(-c3csc(NC(=O)CNC(=O)c4ccc5c(c4)[C@@H](C)COC5)n3)n2)C[C@H](C)O1 [Compound 320, (R)-N-(2-((4-(6-((cis)-2,6-dimethylmorpholino)pyridin-2-yl)thiazol-2-yl)amino)-2-oxoethyl)-4-methylisochromane-6-carboxamide] | 0.1 to 1 | > 95 | >95 | < 0.1 | – | – | – | – | – |
| COCC(NC(=O)c1ccc2c(c1)[C@](C)(F)COC2)C(=O)Nc1nc(-c2cccc(C(F)F)c2)cs1 (stereo in doubt) [Compound 327, (S)-N-((R)-1-((4-(3-(difluoromethyl)phenyl)thiazol-2-yl)amino)-3-methoxy-1-oxopropan-2-yl)-4-fluoro-4-methylisochromane-6-carboxamide] | 0.1 to 1 | > 95 | >95 | < 0.1 | – | – | – | – | – |
| C[C@@]1(C#N)COCc2ccc(C(=O)NCC(=O)Nc3nc(-c4cccc(F)c4)cs3)cc21 [Compound 322, (R)-4-cyano-N-(2-((4-(3-fluorophenyl)thiazol-2-yl)amino)-2-oxoethyl)-4-methylisochromane-6-carboxamide] | 0.1 to 1 | > 95 | >95 | < 0.1 | – | – | – | – | – |
| CC(C)(CN)c1cccc(C(=O)NCC(=O)Nc2nc(-c3cccc(-c4cccc(CN)c4)c3)cs2)c1 [Compound 209, 3-(2-amino-1,1-dimethyl-ethyl)-N-[2-[[4-[3-[3-(aminomethyl)phenyl]phenyl]thiazol-2-yl]amino]-2-oxo-ethyl]benzamide] | 1 to 5 | > 50 | >90 | 0.1 to 1 | – | – | – | – | – |
| C[C@@]1(F)COCc2ccc(C(=O)NCC(=O)Nc3nc(-c4cccc(N5CCC5)c4)cs3)cc21 [Compound 332, (S)-N-(2-((4-(3-(azetidin-1-yl)phenyl)thiazol-2-yl)amino)-2-oxoethyl)-4-fluoro-4-methylisochromane-6-carboxamide] | < 0.1 | > 95 | >95 | < 0.1 | – | – | – | – | – |
| CC(C)(N)c1cccc(C(=O)NCC(=O)Nc2nc(-c3cccc(-c4ccncc4)c3)cs2)c1 [Compound 86, 3-(2-aminopropan-2-yl)-N-(2-oxo-2-((4-(3-(pyridin-4-yl)phenyl)thiazol-2-yl)amino)ethyl)benzamide] | 1 to 5 | > 60 | >80 | > 5 | – | – | – | – | – |
| O=C(CNC(=O)c1ccc2c(c1)[C@@](F)(C(F)F)COC2)Nc1nc(-c2cc(F)cc(N3CCC3)c2)cs1 [Compound 277, (S)-N-(2-((4-(3-(azetidin-1-yl)-5-fluorophenyl)thiazol-2-yl)amino)-2-oxoethyl)-4-(difluoromethyl)-4-fluoroisochromane-6-carboxamide] | < 0.1 | > 95 | >95 | < 0.1 | – | – | – | – | – |
| CC(C)(CN)c1cccc(C(=O)NCC(=O)Nc2nc(-c3cccc(-c4ccnc(N)c4)c3)cs2)c1 [Compound 59, 3-(1-amino-2-methylpropan-2-yl)-N-(2-((4-(3-(2-aminopyridin-4-yl)phenyl)thiazol-2-yl)amino)-2-oxoethyl)benzamide] | 0.1 to 1 | > 80 | >95 | < 0.1 | – | – | – | – | – |
| C[C@@H]1CN(c2cccc(-c3csc(NC(=O)CNC(=O)c4cccc([C@H]5COC[C@H]5O)c4)n3)n2)C[C@H](C)O1 (stereo in doubt) [Compound 425, N-(2-((4-(6-((cis)-2,6-dimethylmorpholino)pyridin-2-yl)thiazol-2-yl)amino)-2-oxoethyl)-3-((trans)-4-hydroxytetrahydrofuran-3-yl)benzamide] | – | – | – | – | > 5 | > 85 | >85 | 0.1 to 1 | – |
| CC(C)S(=O)(=O)c1cccc(C(=O)NCC(=O)Nc2nc(-c3cccc(-c4ccnc(CN)c4)c3)cs2)c1 [Compound 124, N-[2-[[4-[3-[2-(aminomethyl)-4-pyridyl]phenyl]thiazol-2-yl]amino]-2-oxo-ethyl]-3-isopropylsulfonyl-benzamide] | 1 to 5 | > 70 | >90 | 0.1 to 1 | – | – | – | – | – |
| CC1(C#N)CCOc2ccc(C(=O)NCC(=O)Nc3nc(-c4cccc(N5CCC5)c4)cs3)cc21 (stereo in doubt) [Compound 416, (S)-N-(2-((4-(3-(azetidin-1-yl)phenyl)thiazol-2-yl)amino)-2-oxoethyl)-4-cyano-4-methylchromane-6-carboxamide] | – | – | – | – | 0.1 to 1 | > 95 | >95 | < 0.1 | – |
| Cc1cc(-c2cccc(-c3csc(NC(=O)CNC(=O)c4cccc(C(C)(C)CO)c4)n3)c2)nc(C)n1 [Compound 94] | < 0.1 | – | >95 | < 0.1 | – | – | – | – | >95 |
| Cc1cc(C(=O)NCC(=O)Nc2nc(-c3cccc(-c4ccncc4)c3)cs2)cc(S(=O)(=O)C(C)C)c1C [Compound 16, 3-(isopropylsulfonyl)-4,5-dimethyl-N-(2-oxo-2-((4-(3-(pyridin-4-yl)phenyl)thiazol-2-yl)amino)ethyl)benzamide] | > 5 | < 30 | >70 | 0.1 to 1 | – | – | – | – | – |
| CC1(CO)CCc2ccc(C(=O)NCC(=O)Nc3nc(-c4ccn5ccnc5c4)cs3)cc21 (stereo in doubt) [Compound 178, (R)-3-(hydroxymethyl)-N-(2-((4-(imidazo[1,2-a]pyridin-7-yl)thiazol-2-yl)amino)-2-oxoethyl)-3-methyl-2,3-dihydro-1H-indene-5-carboxamide] | > 5 | > 50 | >80 | 0.1 to 1 | – | – | – | – | – |
| CC(C)(/C(N)=N\O)c1cccc(C(=O)NCC(=O)Nc2nc(-c3cccc(-c4ccncc4)c3)cs2)c1 [Compound 83, (E)-3-(1-amino-1-(hydroxyimino)-2-methylpropan-2-yl)-N-(2-oxo-2-((4-(3-(pyridin-4-yl)phenyl)thiazol-2-yl)amino)ethyl)benzamide] | > 5 | > 50 | >90 | 1 to 5 | – | – | – | – | – |
| Cn1ncc2ccc(-c3csc(NC(=O)CNC(=O)c4ccc5c(c4)[C@](C)(CO)CC5)n3)cc21 [Compound 179, (R)-3-(hydroxymethyl)-3-methyl-N-(2-((4-(1-methyl-1H-indazol-6-yl)thiazol-2-yl)amino)-2-oxoethyl)-2,3-dihydro-1H-indene-5-carboxamide] | > 5 | > 50 | >80 | 0.1 to 1 | – | – | – | – | – |
| C[C@@H]1CN(c2cccc(-c3csc(NC(=O)CNC(=O)c4ccc5c(c4)C4(CCO5)COC4)n3)n2)C[C@H](C)O1 [Compound 381, N-(2-((4-(6-((cis)-2,6-dimethylmorpholino)pyridin-2-yl)thiazol-2-yl)amino)-2-oxoethyl)spiro[chromane-4,3′-oxetane]-6-carboxamide] | > 5 | > 80 | >80 | 0.1 to 1 | – | – | – | – | – |
| C[C@@H]1CN(c2cccc(-c3csc(NC(=O)CNC(=O)c4ccc5c(c4)[C@]4(CCC[C@@H]4O)CC5)n3)c2)C[C@H](C)O1 [Compound 189, (1S,2S)-N-(2-((4-(3-((cis)-2,6-dimethylmorpholino)phenyl)thiazol-2-yl)amino)-2-oxoethyl)-2-hydroxy-2′,3′-dihydrospiro[cyclopentane-1,1′-indene]-6′-carboxamide] | 1 to 5 | > 50 | >90 | 0.1 to 1 | – | – | – | – | – |
| C[C@@]1(C#N)COCc2ccc(C(=O)NCC(=O)Nc3nc(-c4cccc([C@]56CCOC[C@H]5C6)c4)cs3)cc21 [Compound 295, (R)-N-(2-((4-(3-((1S,6R)-3-oxabicyclo[4.1.0]heptan-6-yl)phenyl)thiazol-2-yl)amino)-2-oxoethyl)-4-cyano-4-methylisochromane-6-carboxamide] | 0.1 to 1 | > 95 | >95 | < 0.1 | – | – | – | – | – |
| CC(C)(CN)c1cccc(C(=O)NCC(=O)Nc2nc(-c3cccc(-c4cccc(C#N)c4)c3)cs2)c1 [Compound 55, 3-(1-amino-2-methylpropan-2-yl)-N-(2-((4-(3′-cyano-[1,1′-biphenyl]-3-yl)thiazol-2-yl)amino)-2-oxoethyl)benzamide] | > 5 | > 60 | >90 | 0.1 to 1 | – | – | – | – | – |
| C[C@@H]1CN(c2cccc(-c3csc(NC(=O)CNC(=O)c4cccc([C@]5(F)C[C@@H](F)C5)c4)n3)n2)C[C@H](C)O1 [Compound 357, 3-((1S,3S)-1,3-difluorocyclobutyl)-N-(2-((4-(6-((cis)-2,6-dimethylmorpholino)pyridin-2-yl)thiazol-2-yl)amino)-2-oxoethyl)benzamide] | 0.1 to 1 | > 90 | >90 | 0.1 to 1 | – | – | – | – | – |
| CC1(C#N)CCOc2ccc(C(=O)NCC(=O)Nc3nc(-c4cccc(C5CC5)n4)cs3)cc21 (stereo in doubt) [Compound 439, (S)-4-cyano-N-(2-((4-(6-cyclopropylpyridin-2-yl)thiazol-2-yl)amino)-2-oxoethyl)-4-methylchromane-6-carboxamide] | – | – | – | – | 1 to 5 | > 95 | >95 | 0.1 to 1 | – |
